In patent US12227500B2, “Substituted pyrrolo[2,3-b]pyridines for suppressing toxic endoplasmic reticulum stress” (THE TRUSTEES OF COLUMBIA UNIVERSITY IN THE CITY OF NEW YORK, priority 2018, dated 2025):
Like-named read-outs stand apart in the source and are kept apart here.

Legend:
Assay in all cases: Radiolabeled ATP kinase assay, panel of 60 kinases (Table S5)
Assay type in all cases: biochemical
[1] = target: T1, panel of 60 human kinases (Homo sapiens, UniProt P49759); settings: CLK1; 0.1 μM; 10 μM ATP; read-out: % Enzyme Activity (relative to DSMO controls)
T1 construct: purchased Reaction Biology Corp
Outline: (§1)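 Cell-free radiolabeled-ATP kinase assays across a panel of 60 kinases; each compound tested at 0.1 μM and 0.5 μM for inhibition.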

[2] = target: T2, panel of 60 human kinases (Homo sapiens, UniProt Q16288); settings: TRKC; 0.1 μM; 10 μM ATP; read-out: % Enzyme Activity (relative to DSMO controls)
T2 construct: purchased Reaction Biology Corp
Outline: as §1

[3] = target: T3, panel of 60 human kinases (Homo sapiens, UniProt P22607); settings: FGFR3; 0.1 μM; 10 μM ATP; read-out: % Enzyme Activity (relative to DSMO controls)
T3 construct: purchased Reaction Biology Corp
Outline: as §1

[4] = target: T4, panel of 60 human kinases (Homo sapiens, UniProt P11362); settings: FGFR1; 0.1 μM; 10 μM ATP; read-out: % Enzyme Activity (relative to DSMO controls)
T4 construct: purchased Reaction Biology Corp
Outline: as §1

[5] = target: T5, panel of 60 human kinases (Homo sapiens, UniProt Q92630); settings: DYRK2; 0.1 μM; 10 μM ATP; read-out: % Enzyme Activity (relative to DSMO controls)
T5 construct: purchased Reaction Biology Corp
T5 sequence (Q92630 1-601): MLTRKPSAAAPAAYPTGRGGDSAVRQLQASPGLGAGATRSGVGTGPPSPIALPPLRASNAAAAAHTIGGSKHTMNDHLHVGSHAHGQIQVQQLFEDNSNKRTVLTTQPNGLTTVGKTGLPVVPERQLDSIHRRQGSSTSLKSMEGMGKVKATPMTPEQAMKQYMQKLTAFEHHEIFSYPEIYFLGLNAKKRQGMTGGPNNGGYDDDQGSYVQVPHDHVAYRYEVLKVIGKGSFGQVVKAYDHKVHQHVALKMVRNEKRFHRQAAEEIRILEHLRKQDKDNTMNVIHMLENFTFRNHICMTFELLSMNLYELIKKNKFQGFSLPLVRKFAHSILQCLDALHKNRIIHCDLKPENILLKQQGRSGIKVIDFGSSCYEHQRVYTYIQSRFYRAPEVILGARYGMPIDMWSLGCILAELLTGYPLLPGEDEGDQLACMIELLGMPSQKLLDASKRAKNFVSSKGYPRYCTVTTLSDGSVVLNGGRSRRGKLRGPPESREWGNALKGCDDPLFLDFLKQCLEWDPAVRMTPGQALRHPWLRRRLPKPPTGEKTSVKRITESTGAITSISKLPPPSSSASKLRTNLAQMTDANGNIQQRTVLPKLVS
Outline: as §1

[6] = target: T6, panel of 60 human kinases (Homo sapiens, UniProt Q00534); settings: 0.1 μM, 10 μM ATP, read-out: % Enzyme Activity (relative to DSMO controls)
T6 construct: purchased Reaction Biology Corp
Outline: as §1

[7] = target: T7, panel of 60 human kinases (Homo sapiens, UniProt P21802); settings: FGFR2; 0.1 μM; 10 μM ATP; read-out: % Enzyme Activity (relative to DSMO controls)
T7 construct: purchased Reaction Biology Corp
Outline: as §1

[8] = target: T8, panel of 60 human kinases (Homo sapiens, UniProt P00519); settings: ABL1; 0.1 μM; 10 μM ATP; read-out: % Enzyme Activity (relative to DSMO controls)
T8 construct: purchased Reaction Biology Corp
Outline: as §1

[9] = target: T9, panel of 60 human kinases (Homo sapiens, UniProt P42684); settings: ABL2/ARG; 0.1 μM; 10 μM ATP; read-out: % Enzyme Activity (relative to DSMO controls)
T9 construct: purchased Reaction Biology Corp
Outline: as §1

[10] = target: T10, panel of 60 human kinases (Homo sapiens, UniProt Q08345); settings: DDR1; 0.1 μM; 10 μM ATP; read-out: % Enzyme Activity (relative to DSMO controls)
T10 construct: purchased Reaction Biology Corp
Outline: as §1

[11] = target: T11, panel of 60 human kinases (Homo sapiens, UniProt Q7L7X3); settings: TAOK1; 0.1 μM; 10 μM ATP; read-out: % Enzyme Activity (relative to DSMO controls)
T11 construct: purchased Reaction Biology Corp
T11 sequence (Q7L7X3 1-1001): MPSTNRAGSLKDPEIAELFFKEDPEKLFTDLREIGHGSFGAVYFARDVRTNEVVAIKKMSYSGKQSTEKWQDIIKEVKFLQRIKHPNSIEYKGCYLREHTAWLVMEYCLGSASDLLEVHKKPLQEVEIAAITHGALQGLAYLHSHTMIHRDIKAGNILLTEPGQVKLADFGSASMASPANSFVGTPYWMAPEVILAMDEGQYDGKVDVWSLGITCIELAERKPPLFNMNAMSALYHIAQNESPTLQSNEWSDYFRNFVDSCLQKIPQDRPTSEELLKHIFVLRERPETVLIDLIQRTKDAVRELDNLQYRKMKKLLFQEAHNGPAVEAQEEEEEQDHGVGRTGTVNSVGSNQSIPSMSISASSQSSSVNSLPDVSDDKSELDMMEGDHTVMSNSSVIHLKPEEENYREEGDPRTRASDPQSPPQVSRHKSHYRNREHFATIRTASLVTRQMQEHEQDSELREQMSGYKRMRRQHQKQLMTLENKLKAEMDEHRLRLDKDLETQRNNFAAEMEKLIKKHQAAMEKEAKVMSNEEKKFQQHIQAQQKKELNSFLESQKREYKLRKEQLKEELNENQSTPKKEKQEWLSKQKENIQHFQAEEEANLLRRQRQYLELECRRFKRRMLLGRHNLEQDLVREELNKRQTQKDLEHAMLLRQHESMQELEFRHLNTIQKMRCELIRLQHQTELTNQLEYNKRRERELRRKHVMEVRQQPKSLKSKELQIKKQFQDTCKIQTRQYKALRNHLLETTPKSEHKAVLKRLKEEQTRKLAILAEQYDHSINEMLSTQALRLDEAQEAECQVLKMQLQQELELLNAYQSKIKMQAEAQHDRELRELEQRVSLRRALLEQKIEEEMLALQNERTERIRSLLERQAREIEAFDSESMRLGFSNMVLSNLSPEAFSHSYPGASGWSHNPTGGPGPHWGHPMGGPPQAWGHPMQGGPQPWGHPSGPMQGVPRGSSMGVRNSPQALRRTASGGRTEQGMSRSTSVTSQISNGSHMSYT
Outline: as §1

T6 sequence (Q00534 whole entry): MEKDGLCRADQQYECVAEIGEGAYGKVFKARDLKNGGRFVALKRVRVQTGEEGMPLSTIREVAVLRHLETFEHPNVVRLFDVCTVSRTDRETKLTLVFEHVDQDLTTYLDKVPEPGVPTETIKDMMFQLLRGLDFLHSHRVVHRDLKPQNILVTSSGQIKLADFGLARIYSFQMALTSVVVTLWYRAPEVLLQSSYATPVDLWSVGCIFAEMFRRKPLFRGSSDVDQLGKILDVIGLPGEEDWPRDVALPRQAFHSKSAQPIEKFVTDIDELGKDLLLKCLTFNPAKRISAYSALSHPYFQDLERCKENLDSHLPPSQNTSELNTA
T8 sequence (P00519 whole entry): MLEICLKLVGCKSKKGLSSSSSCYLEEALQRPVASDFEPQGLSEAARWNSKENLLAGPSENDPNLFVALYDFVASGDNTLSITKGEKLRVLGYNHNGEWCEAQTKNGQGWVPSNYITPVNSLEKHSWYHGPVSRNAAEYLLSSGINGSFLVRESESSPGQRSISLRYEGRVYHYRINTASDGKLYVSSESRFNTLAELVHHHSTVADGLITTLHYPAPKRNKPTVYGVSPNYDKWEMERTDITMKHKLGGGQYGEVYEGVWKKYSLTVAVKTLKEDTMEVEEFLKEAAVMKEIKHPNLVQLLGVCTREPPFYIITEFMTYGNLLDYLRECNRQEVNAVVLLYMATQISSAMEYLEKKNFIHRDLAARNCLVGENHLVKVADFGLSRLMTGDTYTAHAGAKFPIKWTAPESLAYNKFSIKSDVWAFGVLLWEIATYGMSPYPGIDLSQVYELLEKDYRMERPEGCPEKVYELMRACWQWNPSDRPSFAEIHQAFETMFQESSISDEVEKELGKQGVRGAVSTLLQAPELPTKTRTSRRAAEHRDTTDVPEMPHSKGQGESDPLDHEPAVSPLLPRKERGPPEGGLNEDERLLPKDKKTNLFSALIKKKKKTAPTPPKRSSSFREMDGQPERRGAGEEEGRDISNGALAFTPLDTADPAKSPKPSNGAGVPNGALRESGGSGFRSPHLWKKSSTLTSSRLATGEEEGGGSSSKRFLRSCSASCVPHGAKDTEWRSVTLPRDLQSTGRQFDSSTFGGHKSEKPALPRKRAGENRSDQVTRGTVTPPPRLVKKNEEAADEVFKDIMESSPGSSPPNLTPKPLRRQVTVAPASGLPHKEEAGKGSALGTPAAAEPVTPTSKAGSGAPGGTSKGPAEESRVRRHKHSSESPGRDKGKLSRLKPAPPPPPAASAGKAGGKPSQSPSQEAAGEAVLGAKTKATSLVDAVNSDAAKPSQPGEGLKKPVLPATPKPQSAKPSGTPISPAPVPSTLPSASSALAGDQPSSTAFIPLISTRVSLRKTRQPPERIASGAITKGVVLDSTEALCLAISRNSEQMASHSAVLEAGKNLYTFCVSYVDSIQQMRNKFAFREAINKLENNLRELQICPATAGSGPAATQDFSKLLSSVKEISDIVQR
T10 sequence (Q08345 19-913): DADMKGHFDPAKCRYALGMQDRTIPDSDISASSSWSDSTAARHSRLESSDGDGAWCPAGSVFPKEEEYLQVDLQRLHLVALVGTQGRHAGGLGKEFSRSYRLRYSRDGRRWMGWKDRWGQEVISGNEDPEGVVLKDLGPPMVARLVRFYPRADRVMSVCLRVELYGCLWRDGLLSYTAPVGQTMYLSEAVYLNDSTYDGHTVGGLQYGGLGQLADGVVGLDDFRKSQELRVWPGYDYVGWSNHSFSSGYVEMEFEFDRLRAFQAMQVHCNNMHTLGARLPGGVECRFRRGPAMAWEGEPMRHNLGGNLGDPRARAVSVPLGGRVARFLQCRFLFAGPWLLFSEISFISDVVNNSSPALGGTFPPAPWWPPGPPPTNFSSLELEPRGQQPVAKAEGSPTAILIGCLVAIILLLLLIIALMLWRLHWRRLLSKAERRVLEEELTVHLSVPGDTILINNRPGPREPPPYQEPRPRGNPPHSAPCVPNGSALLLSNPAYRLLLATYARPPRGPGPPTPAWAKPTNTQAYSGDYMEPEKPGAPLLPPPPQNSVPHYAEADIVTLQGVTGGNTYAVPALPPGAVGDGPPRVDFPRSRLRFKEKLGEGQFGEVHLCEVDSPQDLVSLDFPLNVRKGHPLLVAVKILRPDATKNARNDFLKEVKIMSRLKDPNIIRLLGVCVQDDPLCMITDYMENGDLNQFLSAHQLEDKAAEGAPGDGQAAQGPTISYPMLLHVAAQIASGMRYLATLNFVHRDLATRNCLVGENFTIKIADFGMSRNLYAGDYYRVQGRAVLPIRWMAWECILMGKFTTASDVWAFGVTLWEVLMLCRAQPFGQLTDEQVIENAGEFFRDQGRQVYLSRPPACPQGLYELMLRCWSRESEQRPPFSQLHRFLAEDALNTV
T3 sequence (P22607 23-806): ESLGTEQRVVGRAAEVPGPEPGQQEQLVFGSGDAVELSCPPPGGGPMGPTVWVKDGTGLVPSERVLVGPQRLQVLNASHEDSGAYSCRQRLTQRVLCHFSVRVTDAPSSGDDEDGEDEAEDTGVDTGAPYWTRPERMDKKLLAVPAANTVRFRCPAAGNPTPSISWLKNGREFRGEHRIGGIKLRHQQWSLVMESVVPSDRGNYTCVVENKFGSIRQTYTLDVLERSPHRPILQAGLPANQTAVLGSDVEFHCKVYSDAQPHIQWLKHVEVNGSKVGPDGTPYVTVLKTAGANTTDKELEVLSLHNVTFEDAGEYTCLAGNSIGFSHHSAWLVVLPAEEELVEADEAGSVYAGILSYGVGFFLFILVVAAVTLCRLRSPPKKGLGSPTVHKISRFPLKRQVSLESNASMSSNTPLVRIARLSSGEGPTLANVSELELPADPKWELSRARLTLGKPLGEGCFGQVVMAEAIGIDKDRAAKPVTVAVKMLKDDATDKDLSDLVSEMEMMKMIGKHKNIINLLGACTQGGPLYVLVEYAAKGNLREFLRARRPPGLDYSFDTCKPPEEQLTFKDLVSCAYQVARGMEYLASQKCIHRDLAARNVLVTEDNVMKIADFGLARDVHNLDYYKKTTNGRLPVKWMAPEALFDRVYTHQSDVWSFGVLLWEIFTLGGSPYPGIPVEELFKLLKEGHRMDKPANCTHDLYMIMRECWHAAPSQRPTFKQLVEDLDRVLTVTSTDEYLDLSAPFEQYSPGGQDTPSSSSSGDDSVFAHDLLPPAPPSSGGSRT
T1 sequence (P49759 whole entry): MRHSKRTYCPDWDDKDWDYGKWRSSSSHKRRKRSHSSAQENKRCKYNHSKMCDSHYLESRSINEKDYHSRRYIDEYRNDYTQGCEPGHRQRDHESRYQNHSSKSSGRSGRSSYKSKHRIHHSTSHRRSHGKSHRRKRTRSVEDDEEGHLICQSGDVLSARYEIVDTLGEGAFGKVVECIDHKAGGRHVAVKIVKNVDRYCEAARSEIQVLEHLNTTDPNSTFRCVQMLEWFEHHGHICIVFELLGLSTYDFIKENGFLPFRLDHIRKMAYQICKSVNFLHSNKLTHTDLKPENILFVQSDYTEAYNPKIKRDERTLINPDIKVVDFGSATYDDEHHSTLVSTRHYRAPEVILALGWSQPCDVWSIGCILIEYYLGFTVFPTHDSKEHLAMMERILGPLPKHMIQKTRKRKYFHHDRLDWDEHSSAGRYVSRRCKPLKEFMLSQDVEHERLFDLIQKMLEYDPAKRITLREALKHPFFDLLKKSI
T9 sequence (P42684 whole entry): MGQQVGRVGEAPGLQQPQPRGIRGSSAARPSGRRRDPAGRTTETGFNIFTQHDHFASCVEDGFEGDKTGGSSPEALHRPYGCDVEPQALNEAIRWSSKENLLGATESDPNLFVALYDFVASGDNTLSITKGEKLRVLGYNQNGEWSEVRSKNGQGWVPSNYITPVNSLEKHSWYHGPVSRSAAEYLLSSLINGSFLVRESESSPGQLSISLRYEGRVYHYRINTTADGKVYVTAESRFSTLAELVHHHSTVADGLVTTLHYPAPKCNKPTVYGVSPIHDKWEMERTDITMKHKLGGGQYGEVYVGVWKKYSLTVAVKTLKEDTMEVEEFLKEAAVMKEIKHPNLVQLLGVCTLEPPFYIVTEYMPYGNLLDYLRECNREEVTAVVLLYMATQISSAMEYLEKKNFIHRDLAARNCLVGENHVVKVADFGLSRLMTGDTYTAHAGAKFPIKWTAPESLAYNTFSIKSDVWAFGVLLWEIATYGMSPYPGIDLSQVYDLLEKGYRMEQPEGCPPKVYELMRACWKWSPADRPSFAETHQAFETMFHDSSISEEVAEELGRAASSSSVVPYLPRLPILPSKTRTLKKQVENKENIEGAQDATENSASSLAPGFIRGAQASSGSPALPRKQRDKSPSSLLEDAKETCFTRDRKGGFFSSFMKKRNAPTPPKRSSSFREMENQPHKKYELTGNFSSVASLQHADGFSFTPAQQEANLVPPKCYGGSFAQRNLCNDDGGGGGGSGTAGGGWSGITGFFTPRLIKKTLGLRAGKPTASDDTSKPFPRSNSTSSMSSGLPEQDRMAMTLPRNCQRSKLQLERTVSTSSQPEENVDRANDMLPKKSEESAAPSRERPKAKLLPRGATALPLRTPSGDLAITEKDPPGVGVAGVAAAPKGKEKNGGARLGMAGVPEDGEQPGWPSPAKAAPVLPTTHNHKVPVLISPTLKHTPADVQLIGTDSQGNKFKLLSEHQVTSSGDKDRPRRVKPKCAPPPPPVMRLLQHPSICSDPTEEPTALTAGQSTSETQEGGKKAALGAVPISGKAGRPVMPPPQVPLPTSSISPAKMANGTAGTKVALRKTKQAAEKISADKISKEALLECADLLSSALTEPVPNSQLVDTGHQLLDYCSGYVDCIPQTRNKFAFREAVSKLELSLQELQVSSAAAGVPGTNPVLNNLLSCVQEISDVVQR

## CN1CCN(Cc2ccc(-c3cnc4[nH]cc(-c5ccccc5Cl)c4c3)cc2)CC1 [Compound 7as, 3-(2-Chlorophenyl)-5-(4-((4-methylpiperazin-1-yl)methyl)phenyl)-1H-pyrrolo[2,3-b]pyridine]
[1]
  remaining activity at 0.1 µM: 44.6%
[2]
  remaining activity at 0.1 µM: 6.32%
[3]
  remaining activity at 0.1 µM: 42.3%
[4]
  remaining activity at 0.1 µM: 77.9%
[5]
  remaining activity at 0.1 µM: 18.2%
[6]; CDK6/cyclin D1
  remaining activity at 0.1 µM: 15.6%
[6]; CDK6/cyclin D3
  remaining activity at 0.1 µM: 36.1%
[7]
  remaining activity at 0.1 µM: 41.1%
[8]
  remaining activity at 0.1 µM: 5.92%
[9]
  remaining activity at 0.1 µM: 0.99%
[10]
  remaining activity at 0.1 µM: 35.6%
[11]
  remaining activity at 0.1 µM: 39.3%
